Results from US9976141B2, “Compositions and methods for inhibiting gene expression of Hif2alpha” (Arrowhead Madison Inc., priority 2015, dated 2018).
Strand notation (5' to 3'): a small letter for the sugar, then the base; units joined by * are phosphorothioate-linked, units joined directly phosphodiester-linked; [ ] holds rarer units or linkages, { } end groups; capitals alone tell only the bases. [UNA-N] = unlocked nucleic acid (N: the base); [invdT] = inverted (3'-3') thymidine; d = 2'-deoxy (DNA); m = 2'-O-methyl; f = 2'-fluoro

Legend:
[1] = tested on: A498-SEAP ccRCC orthotopic kidney tumor; assay: HiF2α RNAi trigger/sunitinib combination study: tumor size and SEAP expression (Table 10B); format: in vivo, mice; details: trigger = Duplex AD1884 with polymer 064 (125 μg polymer) iv every 4 weeks, 4 doses, sunitinib oral gavage, 3 cycles
Method: Female athymic nude mice were anesthetized with ˜3% isoflourane and placed in the right lateral decubitus position. A small, 0.5-1 cm, longitudinally abdominal incision in the left flank was made. Using a moist cotton swab, the left kidney was lifted out of the peritoneum and gently stabilized. Just before injection, a 1.0 ml syringe was filled with the cell/Matrigel mixture and a 27 gauge needle catheter was attached to the syringe tip. The filled syringe was then attached to a syringe pump (Harvard Apparatus, model PHD2000) and primed to remove air. The tip of a 27-gauge needle catheter attached to a syringe was inserted just below the renal capsule near the caudal pole and the tip of the needle was then carefully advanced cranially along the capsule 3-4 mm. A 10 μl aliquot of 2:1 (vol:vol) cell/matrigel mixture containing about 300,000 cells was slowly injected into the kidney parenchyma using a syringe pump. The needle was left in the kidney for 15-20 seconds to ensure the injection was complete. The needle was then removed from the kidney and a cotton swab was placed over the injection site for 30 seconds to prevent leakage of the cells or bleeding. The kidney was then gently placed back into the abdomen and the abdominal wall was closed. Serum was collected every 7-14 days after implantation to monitor tumor growth using a commercial SEAP assay kit. For most studies, tumor mice were used 5-6 weeks after implantation, when tumor measurements were typically around 4-8 mm.
HiF2α RNAi trigger-delivery polymer conjugate (125 μg polymer) was prepared using protocol 7 Duplex ID No. AD1884 and polymer 064. HiF2α RNAi trigger-delivery polymer conjugate was dosed every 4 weeks by iv injection, 4 doses total. Sunitinib (Malate salt) obtained from LC laboratories was suspended in Ora-plus/Ora sweet (50:50, vol:vol). […]
Tumor growth rates were evaluated by serum SEAP collected at 5-7 days interval during treatment. Tumor weight and volume was determined at necropsy. Gross tumor morphology and H&E histopathology were evaluated.

[2] = tested on: human (tumor) Hif2α (EPAS1) mRNA; assay: HiF2α RNAi trigger/sunitinib combination study: HiF2α expression in RCC tumors (Table 10A); format: in vivo; details: 4 doses, 3 cycles
[3] = tested on: human EPAS1 (Hif2α) cDNA in psiCHECK2 (Renilla luciferase/EPAS1 fusion mRNA) in Hep3B cells; assay: Hif2α RNAi trigger EC50 determination, dual-luciferase reporter assay; format: cell-based; details: UNA modified at site 6 or 7, EPAS1-psiCHECK2, same conditions, read-out: EC50 UNAs EC50
Source text: Candidate sequences were identified by in silico analysis and screened as chemically modified canonical siRNAs in vitro. For screening purposes, the human EPAS1 (Hif2α) cDNA sequence (accession #NM 001430) was synthesized and cloned (DNA 2.0, Menlo Park, Calif.) into a commercially-available reporter-based screening plasmid, psiCHECK2 (Promega, Madison, Wis.) which generated a Renilla luciferase/EPAS1 fusion mRNA. For RNAi trigger efficacy evaluation, Hep3B cells, a human hepatocellular carcinoma line, were plated at 10,000 cells per well in 96-well format. Each of the 187 EPAS1 RNAi triggers, in two subsets, was co-transfected at two concentrations, 1 nM and 0.1 nM, with 25 ng EPAS1-psiCHECK2 plasmid DNA per well and 0.2 μL LipoFectamine 2000 (Life Technologies) per well. Gene knockdown was determined by measuring Renilla luciferase levels normalized to the levels of constitutively-expressed firefly luciferase, also present on the psiCHECK-2 plasmid, using the Dual Luciferase Reporter Assay (Promega, Madison, Wis.) Table 5.
The eight best canonical sequences were further evaluated by determining the EC50 concentration. Each trigger was assessed for knockdown under the same conditions and assays as above, but at 10 different concentrations ranging from 0.00051 nM to 10 nM. EC50 were determined using GraphPad Prism software. Each of the top five canonical sequences were modified to contain UNA at sites 6 and 7. These triggers, along with their parent canonical sequences, were evaluated side-by-side for EC50 concentration determination using the same conditions and assays as above, Table 6.

Molecule | Tumor volume ([1]; at necropsy) | Tumor weight ([1]; at necropsy) | Fold increase in SEAP ([1]; serum SEAP, overall) | Relative HiF2α expression levels decreased ([2]; DPC 125 μg polymer iv every 4 weeks, sunitinib oral gavage 5 days/week 2 weeks on, 2 weeks off) | HiF2α expression, Relative expression ([2]; trigger = Duplex AD1884 with polymer 064 (125 μg polymer) iv every 4 weeks, sunitinib oral gavage 5 days/week, 2 weeks on/2 off) | EC50 [3]
CCN(CC)CCNC(=O)c1c(C)[nH]c(/C=C2\C(=O)Nc3ccc(F)cc32)c1C [sunitinib, Sunitinib] | 2113.5 ± 368 mm3 | 2385.7 ± 845 mg | 18.1 ± 9.8 | 11.4% | 0.886 | 
AD00997: Hif2α RNAi trigger, XD-02415 sequence modified to contain UNA at site 7 (antisense dTfAmAfGmUfU[UNA-A]fAmGfCmUfCmCfCmAfUmAfCmAdT*dT; sense fUmGfUmAfUmGfGmGfAmGfCmUfUmAfAmCfUmUfA[invdT]) |  |  |  |  |  | 0.183 nM
